Data: patent US6417386B2, “Cyanohydrazone derivatives” (Syngenta Crop Protection, Inc., priority 1996, dated 2002)

Structure (SMILES) | melting point [°C]
N#C/C(=N\Nc1c(Cl)cc(C(F)(F)F)cc1Cl)c1ccc(Cl)cc1 [Compound 3.16, 4-{1-[(2,6-dichloro-4-trifluoromethylphenyl)hydrazono]-2-nitriloethyl}chlorobenzene] | 164 to 165
N#C/C(=N\Nc1c(Cl)cc(C(F)(F)F)cc1Cl)c1ccc(C#N)cc1 [Compound 3.4, 4-{1-[(2,6-dichloro-4-trifluoromethylphenyl)hydrazono]-2-nitriloethyl}benzonitrile] | 186 to 187
